What was measured:
SHEP-bcl-2 = assay: Cell viability (methylene blue test) with CH11 anti-FasR antibody, SHEP-bcl-2 line; type: cell-based, human
Protocol: (§1) The human lines Jurkat (lymphoid T), SHEP (neuroblastoma) transfected with a control vector or with a bcl-2 or bcl-XL vector, 143N2 (osteosarcoma) and SNB79 (glioblastoma) were cultured in DMEM or RPMI 1640 (Sigma Chemical Co., St Louis, Mo.) supplemented with FCS 10% (Dutscher, Brumath, France), penicillin G (10^2 IU/mI)+streptomycin (50 μg/ml) (Sigma) and L-glutamine ([…], Sigma).
(§2) The cells were cultured in the presence of anti-Fas receptor antibody CH11 (1 μg/ml; Immunotech, Marseilles, France) concomitantly or after exposure to RO5-4864 (BioBlock Scientific, Illkirch, France), diazepam (Roche, Neuilly sur Seine, France), or PK11195 (BioBlock), at various concentrations.
(§3) Cell viability was measured by testing with methylene blue (Dimanche-Boitrel et al., 1992).
(§4) 2. FIG. 2: culture of the SHEP control lines (SHEP.control), of SHEP lines transfected with bcl2 (SHEP.Bcl2), and of SHEP lines transfected with bclXL (SHEP.BClXL), in the presence of CH11 with (black histograms) or without (grey histograms) RO5-4864. Evaluation of cell viability (test with methylene blue; percentage of cells on ordinate), as a function of the concentration of RO5-4864 (0, 100 μM or RO100, 200 μM or RO 200).

Jurkat (lymphoid T) = assay: Quantification of apoptosis in Jurkat cells cultured with anti-Fas receptor antibody CH11 and PBR ligands; type: cell-based, human; settings: for potentiation of the apoptotic effect of the CH11 anti-FasR antibody: FIGS. 1A and 1B; for proportion of subdiploid (apoptotic) cells: ligand at 60 μM in combination with CH11 anti-FasR antibody
Protocol: as §1, §2
Lipophilic fluorochrome DiOC6(3) (Molecular Probes, Eugene, Oreg.) was used for measuring the membrane potential of the mitochondria (Δψm). Briefly, the cells were incubated for 15 min at 37° C. in the presence of 40 nM of DiOC6(3), with immediate analysis of the incorporation of fluorescence on a type Epics Profile II cytofluorometer (Coulter, Miami, Fla.). Hydroethydine (HE) (2 μM, 15 min at 37° C., Molecular Probes) was used for measuring the production of superoxide anion (Marchetti et al., 1996). Finally, the proportion of cells that had lost part of the chromosomal DNA (subdiploid cells) was determined with propidium iodide on cells fixed in ethanol (Nicoletti et al., 1991).
1. FIG. 1: culture of Jurkat cells in the presence of CH11 with (white histograms) or without (black histograms) RO5-4864, PK11195 or diazepam.

[1] = system: SHEP-control (neuroblastoma transfected with a control vector); assay: Cell viability (methylene blue test) with CH11 anti-FasR antibody, SHEP-control line; type: cell-based, human
Protocol: as §1, §2, §3, §4

143N2 (osteosarcoma) = assay: Cell viability (methylene blue test) with CH11 anti-FasR antibody, 143N2 line; type: cell-based, human
Protocol: as §1, §2, §3
3. FIG. 3: culture of the 143N2 line in the presence of CH11 with (black histograms) or without (grey histograms) RO5-4864, PK11195 or diazepam. Evaluation of cell viability (test with methylene blue; percentage of cells on ordinate), as a function of the concentration of RO5-4864 (100 μM or RO 100, 200 μM or RO 200), PK11195 (50 μM or PK50, 80 μM or PK 80) and DIAZEPAM (50 μM or DIA50, 80 μM or DIA80).

SHEP bcl-XL = assay: Cell viability (methylene blue test) with CH11 anti-FasR antibody, SHEP bcl-XL line; type: cell-based, human
Protocol: as §1, §2, §3, §4

SNB79 (glioblastoma) = assay: Cell viability (methylene blue test) with CH11 anti-FasR antibody, SNB79 line; type: cell-based, human
Protocol: as §1, §2, §3
4. FIG. 4: culture of the SNB79 line in the presence of CH11 with (•) or without (o) RO5-4864. Evaluation of cell viability (test with methylene blue; percentage of cells on the ordinate), as a function of the concentration (μM) of Ro5-4864.

[2] = system: SCLC61 small-cell bronchial carcinoma; assay: SCLC61 human tumour xenotransplanted in nude mice, tumour growth; type: in vivo, mouse
[3] = system: SCLC6 small-cell bronchial carcinoma; assay: SCLC6 human tumour xenotransplanted in nude mice, tumour growth; type: in vivo, mouse; settings: etoposide 12 mg/kg/day + ifosfamide 90 mg/kg/day D1 to D3 + RO5-4864 40 mg/kg/day D1 to D3, p<0.05

SMILES | reversal of resistance to the CH11 anti-FasR antibody (SHEP-bcl-2) | potentiation of the apoptotic effect of the CH11 anti-FasR antibody (Jurkat (lymphoid T)) | proportion of subdiploid (apoptotic) cells (Jurkat (lymphoid T)) | reversal of resistance to the CH11 anti-FasR antibody [1] | reversal of resistance to the CH11 anti-FasR antibody (143N2 (osteosarcoma)) | reversal of resistance to the CH11 anti-FasR antibody (SHEP bcl-XL) | reversal of resistance to the CH11 anti-FasR antibody (SNB79 (glioblastoma)) | tumour growth ([2]; RO5-4864 alone, 12 mg/kg/day s.c. D1 to D3) | antitumour effect of etoposide with concomitant RO5-4864 ([2]; etoposide 12 mg/kg/day i.p. D1 to D3 + RO5-4864 12 mg/kg/day s.c. D1 to D3, p<0.005) | antitumour effect of the chemotherapy with RO5-4864 [3]
CCC(C)N(C)C(=O)c1cc2ccccc2c(-c2ccccc2Cl)n1 (stereo not drawn) [PK11195] | only observed with diazepam and PK11195 on the line SHEP-control | potentiate the apoptotic effect | 25% | observed | only observed with diazepam and PK11195 on the line SHEP-control | only observed with diazepam and PK11195 on the line SHEP-control | only observed with diazepam and PK11195 on the line SHEP-control | – | – | –
CN1C(=O)CN=C(c2ccc(Cl)cc2)c2cc(Cl)ccc21 [RO5-4864, 4′-chlorodiazepam] | reverses the resistance | potentiate the apoptotic effect | 73% | reverses the resistance | reverses the resistance | reverses the resistance | reverses the resistance | not altered | increased | increased
CN1C(=O)CN=C(c2ccccc2)c2cc(Cl)ccc21 [diazepam] | only observed with diazepam and PK11195 on the line SHEP-control | potentiate the apoptotic effect | 20% | observed | only observed with diazepam and PK11195 on the line SHEP-control | only observed with diazepam and PK11195 on the line SHEP-control | only observed with diazepam and PK11195 on the line SHEP-control | – | – | –

From patent publication US20030166598A1, “Medicines for treating tumoral pathologies containing the ro5-4864 compound and an apoptosis-inducing agent” (priority 2000, published 2003)
